Several values for one entry are separate records, joined by “and”; a condition that tells them apart may be missing. Identical values can stand only once.
What was measured:
[1] = tested on: L. crispatus, KC18-1173-1, Bladder (Lc-3); experiment: Competition assay, L. crispatus recovered; assay type: cell-based, Lactobacillus crispatus; settings: Table 6, prebiotic 2%, one line per replicate; for Lc-3 MRS Δ: change vs start, background growth in CHL media subtracted, MRS agar; for Lc-3 MRS end: competition Sa-2 vs Lc-3, 48 hours, enumerated on MRS agar
Procedure: (§1) Further testing was conducted to put the prebiotic compounds in competition assay testing, as further described in the test methods section herein. In the competition assay testing, each competition involved testing a single prebiotic compound with the commensal bacteria species of L. crispatus, KC18-1173-1, Bladder (“Lc-3”—Table 2) against the pathogenic bacterial species of S. anginosus, KC18-1131-3B, Bladder (“Sa-2”—Table 2).
(§2) • 1. An in house bacterial agar was created based on MRS agar (Kaplan and Hutkins, 2000) where the glucose is substituted for the prebiotic to be tested (either dextran MW ˜6,000, alpha-cyclodextrin, glucomannan, or pectin), bromocresol purple was included as a pH indicator. • 2. Bacteria were enumerated on each agar and color changes were recorded. Method for Competition Assay (Modified from “In Vitro Evaluation of Nutrients that Selectively Confer a Competitive Advantage to Lactobacilli” Vongsa et al, Beneficial Microbes 2016) • 1. Create 2% w/v stock of prebiotic or positive control (glucose/dextrose) as described above. • 2. From a freezer stock subculture the bacteria twice into De Man, Rogosa and Sharpe (MRS) broth (BD Difco, Becton Dickinson, Franklin Lakes, NJ), 37° C., stationary, anaerobic, overnight. • 3. From the last subculture, plate onto an MRS agar plate for L. crispatus KC18-1173-1 or blood agar for S. anginosus KC18-1131-3B, grow 37° C., stationary, anaerobic, overnight. • 4. Create a bacterial suspension by using a sterile tipped swab to transfer colonies of bacteria into a PBS suspension blank to a 2 MacFarland for both species. • 5. Enumerate the starting culture. • 6. Add 9.8 mL of prebiotic media into a 15 mL conical tube. • 7. Add 100 μL of the diluted bacteria to the media, incubate at 37° C., anaerobic, 48 hours. • 8. Harvest 100 μL from the tube containing the prebiotic and plate onto MRS agar and tryptic soy agar (TSA). • 9. Enumerate the bacteria on the MRS agar (both the L. crispatus and the S. anginosus). Small colonies are counted as S. anginosus and large colonies are counted as L. crispatus. • 10. Enumerate the bacteria on the TSA plate. […] Growth of the bacteria in the negative control (CHL media without prebiotic) was subtracted from the growth in the presence of the prebiotic or formulation.

[2] = tested on: commensal and pathogenic bacterial species; experiment: Prebiotic screening, summary in words across species; assay type: cell-based; settings: commensal (L. crispatus, L. gasseri, L. jensenii) and pathogenic (S. anginosus, E. faecalis) species
Procedure: Most of the prebiotic compounds were initially tested in a high throughput assay screening process, described further in the Test Methods section herein, but three prebiotics (as noted in Table 3) were tested using a plate assay screening process as described in the Test Methods section herein. The prebiotics were tested against the commensal bacterial species of Lactobacillus crispatus, Lactobacillus gasseri, and Lactobacillus jensenii and against the pathogenic bacterial species of Streptococcus anginosus and Enterococcus faecalis as shown in Table 2. The bacterial species were taken from different sources, listed as culture collection, bladder, and vagina.
The results of the assay plate screening of the prebiotic compounds of Table 1 against the bacterial species of Table 2 is documented in Table 3 with the results being described by the following legend: • ++ if growth and fermentation was equal to or greater than the positive control • + if growth and fermentation was less than the positive control • […] if weak or no growth or fermentation • NT if not tested Some codes were not tested based on the use or non-use by the bacteria, as a way to efficiently move through the assay plate screening to the competition assay, described below.
• 1. Create a 2% w/v stock of prebiotic or positive control (glucose/dextrose) to be tested in API 50 CHL media (Biomerieux, Marcy-I'Étoile, France). API 50 CHL media contains minimal amounts of carbon for growth, and a bromocresol purple as a pH indicator of fermentation. Filter sterilize media with a […]. Store at 4-6° C. until use. • 2. Add 180 μL of media containing the prebiotic to a sterile, flat bottom 96-well microtiter plate (Corning, Corning, NY). • 3. From a freezer stock subculture the bacteria twice into De Man, Rogosa and Sharpe (MRS) broth (BD Difco, Becton Dickinson, Franklin Lakes, NJ), 37° C., stationary, anaerobic, overnight. • 4. From the last subculture, plate onto an MRS agar plate (Teknova, Hollister, CA) and grow 37° C., stationary, anaerobic, overnight. • 5. Create a bacterial suspension by using a sterile tipped swab to transfer colonies of bacteria into a PBS suspension blank to a 0.5 MacFarland (S. anginosus or E. faecalis) or a 1 MacFarland (Lactobacillus species) from the MRS agar plate. • 6. Enumerate the starting culture. • 7. Inoculate the media alone and media containing the prebiotic or positive control with 20 μL of the bacterial suspension. • 8. Place the plate into a spectrophotometer (Molecular Devices, San Jose, CA) and read the plate every 20 minutes for 24-48 hours. Read wavelengths (OD 430, OD 590, and OD 660). A color change to yellow caused by a drop in pH will be read by an increase in the OD430 value and a decrease in the OD590 value and is indicative of bacterial fermentation. An increase in OD660 values is indicative of an increase in turbidity and bacterial growth.
• 1. An in house bacterial agar was created based on MRS agar (Kaplan and Hutkins, 2000) where the glucose is substituted for the prebiotic to be tested (either dextran MW ˜6,000, alpha-cyclodextrin, glucomannan, or pectin), bromocresol purple was included as a pH indicator. • 2. Bacteria were enumerated on each agar and color changes were recorded. Method for Competition Assay (Modified from “In Vitro Evaluation of Nutrients that Selectively Confer a Competitive Advantage to Lactobacilli” Vongsa et al, Beneficial Microbes 2016) • 1. Create 2% w/v stock of prebiotic or positive control (glucose/dextrose) as described above. • 2. From a freezer stock subculture the bacteria twice into De Man, Rogosa and Sharpe (MRS) broth (BD Difco, Becton Dickinson, Franklin Lakes, NJ), 37° C., stationary, anaerobic, overnight. • 3. From the last subculture, plate onto an MRS agar plate for L. crispatus KC18-1173-1 or blood agar for S. anginosus KC18-1131-3B, grow 37° C., stationary, anaerobic, overnight. • 4. […]

[3] = tested on: S. anginosus, KC18-1131-3B, Bladder (Sa-2); assay type: cell-based; settings: Table 6, prebiotic 2%, one line per replicate; for Sa-2 MRS Δ / Sa-2 TSA Δ: change vs start, background growth in CHL media subtracted; for Sa-2 MRS Δ: MRS agar; for Sa-2 MRS end / Sa-2 TSA end: competition Sa-2 vs Lc-3, 48 hours; for Sa-2 MRS end: anaerobic, enumerated on MRS agar; for Sa-2 TSA end: enumerated on TSA
Procedure: as §1, §2

[4] = tested on: ratio of L. crispatus/S. anginosus; experiment: Therapeutic effect protocol (competition assay); assay type: cell-based, Lactobacillus crispatus; Streptococcus anginosus; settings: Table 6; prebiotic 2%; Lc-3 vs Sa-2
Excerpt: As used herein, the term “therapeutic effect” refers to the ability of the compositions and formulations of the present disclosure to stimulate the growth of L. crispatus relative S. anginosus measured according to the therapeutic effect protocol described below. The therapeutic effect can be expressed as a ratio of L. crispatus to S. anginosus and is desirably greater than about 100, more preferably greater than about 500 and more desirably greater than about 1,000.
as §1, §2
Colonies of L. crispatus and S. anginosus were tested against in the competition method assay test method as described above. The therapeutic effect was calculated by comparing the colony forming units recovered after the competition assay of both L. crispatus and S. anginosus and calculating the ratio of L. crispatus/S. anginosus. A larger number indicates an increase in L. crispatus and/or a decrease in S. anginosus and a smaller number indicates a decrease in L. crispatus and/or an increase in S. anginosus.

SMILES	Lc-3 MRS Δ [1]	Lc-3 MRS end [1]	overall outcome of the screening of Table 3, in words [2]	Sa-2 MRS Δ [3]	Sa-2 TSA Δ [3]	Sa-2 MRS end [3]	Sa-2 TSA end [3]	Therapeutic Effect (ratio of L. crispatus/S. anginosus) [4]
O=C[C@@H](O)[C@H](O)[C@H](O)CO [D-Arabinose]	−0.13 Log CFU/mL and −0.23 Log CFU/mL	5.00 Log CFU/mL and 5.85 Log CFU/mL	not able to provide growth for most, if not all, commensal and pathogenic bacterial species	−0.27 Log CFU/mL and −0.47 Log CFU/mL	−0.46 Log CFU/mL and −0.32 Log CFU/mL	6.43 Log CFU/mL and 6.38 Log CFU/mL	6.39 Log CFU/mL and 6.81 Log CFU/mL	4.07E−02 (2×) and 1.10E−01 (2×)
O=C(CO)[C@@H](O)[C@H](O)[C@H](O)CO[C@H]1O[C@H](CO)[C@@H](O)[C@H](O)[C@H]1O [Palatinose PST-PA]	3.25 Log CFU/mL and 1.94 Log CFU/mL	8.29 Log CFU/mL and 7.68 Log CFU/mL		−1.63 Log CFU/mL	−0.56 Log CFU/mL and −1.23 Log CFU/mL	5.06 Log CFU/mL	6.07 Log CFU/mL and 5.29 Log CFU/mL	1.66E+02 (2×) and 1.50E+02 (2×)
O=CC[C@H](O)[C@H](O)CO [2-Deoxy-D-Ribose]	−5.22 Log CFU/mL and −1.90 Log CFU/mL	0 Log CFU/mL and 4.18 Log CFU/mL	not able to provide growth for most, if not all, commensal and pathogenic bacterial species	−2.41 Log CFU/mL and −1.26 Log CFU/mL	−0.63 Log CFU/mL and −0.23 Log CFU/mL	4.29 Log CFU/mL and 5.59 Log CFU/mL	6.22 Log CFU/mL and 6.90 Log CFU/mL	6.03E−07 (2×) and 1.91E−03 (2×)
OC[C@@H](O)[C@@H](O[C@H]1O[C@H](CO)[C@@H](O)[C@H](O)[C@H]1O)[C@H](O)[C@@H](O)CO [Maltitol]	0.35 Log CFU/mL and −0.08 Log CFU/mL	5.48 Log CFU/mL and 6.00 Log CFU/mL	not able to provide growth for most, if not all, commensal and pathogenic bacterial species	−0.12 Log CFU/mL and −0.37 Log CFU/mL	0.41 Log CFU/mL and 0.47 Log CFU/mL	6.58 Log CFU/mL and 6.48 Log CFU/mL	7.26 Log CFU/mL and 7.6 Log CFU/mL	1.66E−02 (2×) and 2.51E−02 (2×)
O=C(CO)[C@@H](O)[C@H](O)[C@H](O)CO[C@H]1O[C@H](CO)[C@@H](O)[C@H](O)[C@H]1O [Palatinose Hydrate, 6-O-α-D-Glucopyranosyl-D-fructose]	2.93 Log CFU/mL and 2.26 Log CFU/mL and 3.24 Log CFU/mL and 1.90 Log CFU/mL	7.97 Log CFU/mL and 8.00 Log CFU/mL and 8.37 Log CFU/mL and 7.98 Log CFU/mL		−1.69 Log CFU/mL and −1.90 Log CFU/mL and −1.82 Log CFU/mL	−2.39 Log CFU/mL and −2.07 Log CFU/mL and −0.79 Log CFU/mL and −2.32 Log CFU/mL	5.16 Log CFU/mL and 4.47 Log CFU/mL and 4.88 Log CFU/mL	4.74 Log CFU/mL and 4.56 Log CFU/mL and 5.73 Log CFU/mL and 4.53 Log CFU/mL	1.74E+03 (2×) and 2.57E+03 (2×) and 3.29E+03 (2×) and 6.92E+03 (2×)
O=C(CO)[C@@H](O)[C@H](O)[C@H](O)CO[C@H]1O[C@H](CO)[C@@H](O)[C@H](O)[C@H]1O [Palatinose PST-N]	3.42 Log CFU/mL and 2.48 Log CFU/mL	8.46 Log CFU/mL and 8.22 Log CFU/mL		−2.08 Log CFU/mL and −1.53 Log CFU/mL	−2.11 Log CFU/mL and −1.03 Log CFU/mL	4.29 Log CFU/mL and 5.16 Log CFU/mL	4.52 Log CFU/mL and 5.49 Log CFU/mL	8.71E+03 (2×) and 5.80E+03 (2×)
O=C(CO)[C@@H](O)[C@H](O)[C@H](O)CO[C@H]1O[C@H](CO)[C@@H](O)[C@H](O)[C@H]1O [Palatinose PST-PF]	3.02 Log CFU/mL and 2.16 Log CFU/mL	8.06 Log CFU/mL and 7.90 Log CFU/mL		−1.28 Log CFU/mL	−2.68 Log CFU/mL and −0.94 Log CFU/mL	5.41 Log CFU/mL	3.95 Log CFU/mL and 5.58 Log CFU/mL	1.29E+04 (2×) and 1.41E+04 (2×)

Reference: patent US20230293560A1, “METHOD FOR MODULATING THE BLADDER MICROBIOME TO IMPROVE BLADDER HEALTH” (Kimberly-Clark Worldwide, Inc., priority 2020, published 2023)
